Assays:
[1] = target: human M2 mAChR (Homo sapiens, UniProt P08172); type: binding
[2] = target: all five receptor subtypes; conditions: cited from earlier work

human M2 mAChR, sequence (P08172 whole entry): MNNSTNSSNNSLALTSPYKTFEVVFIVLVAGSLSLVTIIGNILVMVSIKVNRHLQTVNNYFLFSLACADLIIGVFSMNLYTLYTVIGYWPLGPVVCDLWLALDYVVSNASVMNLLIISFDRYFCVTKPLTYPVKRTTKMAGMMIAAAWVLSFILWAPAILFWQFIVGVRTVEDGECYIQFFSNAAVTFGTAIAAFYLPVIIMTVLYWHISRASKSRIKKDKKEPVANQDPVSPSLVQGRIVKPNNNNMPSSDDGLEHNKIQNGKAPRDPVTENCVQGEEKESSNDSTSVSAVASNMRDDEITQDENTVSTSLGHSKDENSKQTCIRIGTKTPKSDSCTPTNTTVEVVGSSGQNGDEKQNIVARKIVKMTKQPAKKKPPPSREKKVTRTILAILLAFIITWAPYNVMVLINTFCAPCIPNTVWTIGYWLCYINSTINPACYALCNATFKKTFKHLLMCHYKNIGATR

SMILES	allosteric effect on [3H]NMS binding (in words) [1]	Kd [2] [nM]
CC[N+](CC)(CC)CCOc1cccc(OCC[N+](CC)(CC)CC)c1OCC[N+](CC)(CC)CC [Gallamine, gallamine]	substantially reduced the specific binding	–
COc1nc2sc(C(=O)NC3CC3)c(N)c2c(C)c1Cl [LY2033298]	small NAM effect	–
CN1[C@@H]2C[C@@H](OC(=O)[C@H](CO)c3ccccc3)C[C@H]1[C@@H]1O[C@@H]12 [scopolamine]	–	0.4 to 2.1
